In the NIST ThermoML archive (doi:10.1016/j.tca.2011.05.006):

Key:
[1] = 101 kPa, Liquid, Vibrating tube method
[2] = xn = mol fraction of the nth substance listed; settings: 101 kPa, Liquid, Vibrating tube method

CCCCO [butan-1-ol]
[1]
Settings	mass density [kg/m3]
293.15 K	809.78
298.15 K	806.05
303.15 K	802.03
313.15 K	794.12

CCCCO [butan-1-ol] + CC(C)NC(C)C
[2], x2 = 0
Settings	mass density [kg/m3]
293.15 K	809.78
298.15 K	806.05
303.15 K	802.03
313.15 K	794.12

CC(C)NC(C)C [diisopropylamine]
[1]
Settings	mass density [kg/m3]
293.15 K	720.89
298.15 K	715.35
303.15 K	710.23
313.15 K	699.71

CC(C)NC(C)C [diisopropylamine] + CCCCCO
mass density [kg/m3], [2]
Settings	293.15 K	298.15 K	303.15 K	313.15 K
x1 = 0.0815	809.89	805.62	801.64	794.78
x1 = 0.16	804.18	799.78	795.61	788.52
x1 = 0.2392	797.77	793.23	788.98	780.98
x1 = 0.35	787.88	783.17	778.74	769.75
x1 = 0.4401	779.23	774.43	769.93	760.48
x1 = 0.5597	767.21	762.29	757.69	748.46
x1 = 0.6498	757.9	752.85	748.14	739.55
x1 = 0.7356	748.9	743.79	738.95	730.94
x1 = 0.8497	736.82	731.52	726.57	718.73
x1 = 0.9379	727.48	722.03	716.97	708.08
x1 = 1	720.89	715.35	710.23	699.71

CC(C)NC(C)C [diisopropylamine] + CCCCO
mass density [kg/m3], [2]
Settings	293.15 K	298.15 K	303.15 K	313.15 K
x1 = 0.0815	804.64	800.71	796.89	789.72
x1 = 0.1611	798.64	794.65	790.84	783.86
x1 = 0.2404	792.1	788	784.11	777.07
x1 = 0.3496	782.52	778.41	774.3	767.06
x1 = 0.44	774.49	770.21	766.09	758.54
x1 = 0.56	763.71	759.1	754.95	747.2
x1 = 0.6499	755.59	750.61	746.56	738.57
x1 = 0.74	747.35	741.97	737.86	729.62
x1 = 0.8484	736.91	731.98	727	718.21
x1 = 0.9384	727.64	721.96	717.35	707.61
x1 = 1	720.89	715.35	710.23	699.71

CC(C)NC(C)C [diisopropylamine] + CCCO
mass density [kg/m3], [2]
Settings	293.15 K	298.15 K	303.15 K	313.15 K
x1 = 0.0813	796.38	793.94	791.19	784.48
x1 = 0.1608	791.55	788.58	785.66	779.04
x1 = 0.2398	785.63	782.57	779.21	772.45
x1 = 0.3497	777.13	773.41	769.55	762.48
x1 = 0.4398	769.26	765.67	761.55	754.19
x1 = 0.5546	760.03	755.85	751.48	743.87
x1 = 0.6487	752.32	747.75	743.28	735.48
x1 = 0.7383	744.72	740.05	735.49	727.35
x1 = 0.8491	735.16	730.09	725.47	716.62
x1 = 0.9395	726.79	721.53	716.61	706.82
x1 = 1	720.89	715.35	710.23	699.71

CC(C)NC(C)C [diisopropylamine] + CCO
mass density [kg/m3], [2]
Settings	293.15 K	298.15 K	303.15 K	313.15 K
x1 = 0.0808	788.65	783.48	777.89	767.17
x1 = 0.1601	784.61	779.32	773.64	762.87
x1 = 0.2386	779.98	774.56	768.86	758.28
x1 = 0.3497	772.63	767.12	761.5	751.13
x1 = 0.4411	766.01	760.55	755.15	744.76
x1 = 0.5532	757.4	752.37	747.04	736.47
x1 = 0.65	749.49	744.83	739.74	728.89
x1 = 0.7395	742.16	737.7	732.71	721.68
x1 = 0.8478	733.27	728.73	723.74	712.63
x1 = 0.9385	725.8	720.86	715.91	704.95
x1 = 1	720.89	715.35	710.23	699.71

CC(C)NC(C)C [diisopropylamine] + CO
mass density [kg/m3], [2]
Settings	293.15 K	298.15 K	303.15 K	313.15 K
x1 = 0.0808	789.98	785.35	779.68	768.72
x1 = 0.1599	786.75	781.66	776.01	764.23
x1 = 0.2399	782.33	777.02	771.2	758.93
x1 = 0.3477	774.9	769.38	763.6	751.16
x1 = 0.4444	767.44	761.76	756.06	744.11
x1 = 0.5563	757.92	752.29	746.8	735.46
x1 = 0.6507	749.84	744.22	738.78	727.96
x1 = 0.7388	742.2	736.62	731.3	720.89
x1 = 0.8482	732.94	727.37	722.19	712.05
x1 = 0.94	725.56	719.98	714.87	704.62
x1 = 1	720.89	715.35	710.23	699.71

CCO [ethanol]
[1]
Settings	mass density [kg/m3]
293.15 K	792.17
298.15 K	786.71
303.15 K	781.3
313.15 K	771.14

CCO [ethanol] + CC(C)NC(C)C
[2], x2 = 0
Settings	mass density [kg/m3]
293.15 K	792.17
298.15 K	786.71
303.15 K	781.3
313.15 K	771.14

CO [methanol]
[1]
Settings	mass density [kg/m3]
293.15 K	791.72
298.15 K	787.35
303.15 K	782.24
313.15 K	772.73

CO [methanol] + CC(C)NC(C)C
[2], x2 = 0
Settings	mass density [kg/m3]
293.15 K	791.72
298.15 K	787.35
303.15 K	782.24
313.15 K	772.73

CCCCCO [pentan-1-ol]
[1]
Settings	mass density [kg/m3]
293.15 K	814.8
298.15 K	810.82
303.15 K	807.07
313.15 K	799.4

CCCCCO [pentan-1-ol] + CC(C)NC(C)C
[2], x2 = 0
Settings	mass density [kg/m3]
293.15 K	814.8
298.15 K	810.82
303.15 K	807.07
313.15 K	799.4

CCCO [propan-1-ol]
[1]
Settings	mass density [kg/m3]
293.15 K	800.03
298.15 K	797.81
303.15 K	795.05
313.15 K	787.95

CCCO [propan-1-ol] + CC(C)NC(C)C
[2], x2 = 0
Settings	mass density [kg/m3]
293.15 K	800.03
298.15 K	797.81
303.15 K	795.05
313.15 K	787.95
